In patent US20260276656A1, “GUT MICROBIOTA-RELATED METHODS FOR TREATING DEMENTIA AND AGE-DEPENDENT COGNITIVE DECLINE” (Albert-Ludwigs-Universitat Freiburg, priority 2019, published 2026):

Key:
Type in all cases: in vivo, mouse
C57BL/6J mice [1] = test: Novel object recognition (NOR) test (recognition memory); details: old mice and old mice subjected to FMT from young donors; PLX5622 chow versus respective control mice; FIG. 15C-D
Procedure: (§1) In order to acutely deplete the gut microbiota, 15-16 months old SPF males were treated via oral gavage with a mixture of antibiotics (ABX), containing Cefoxitin (Santa Cruz Biotechnology), Gentamicin (Sigma-Aldrich) Metronidazole (Sigma-Aldrich), and Vancomycin (Hikma-pharma), each 10 mg/kg in sterile 1×PBS, for three consecutive days. On the fourth day, the mice were treated with one dose of Clindamycin hydrochloride (33.3 mg/kg) (Sigma-Aldrich). Fecal microbiota transplantations (FMTs) were started 24 h later. To deplete csf1-dependent cells in vivo, including microglia, mice were provided with CSF1R-inhibitor PLX5622 (Plexxicon Inc.) mixed into AIN-76A standard chow at 1200 mg/kg (Research Diets Inc.) ad libitum. Respective controls received AIN-76A standard chow. Mice were injected with 5 mg/kg δ-valerobetaine (MCAT, Germany) 1 h before behavioral testing.
(§2) For microbiota depletion studies, SPF mice were treated with 1 mg/ml of ampicillin (Auromedics), neomycin sulfate (Fisher), streptomycin (Sigma) and 0.5 mg/ml of vancomycin (Sagent) in the drinking water for 4-5 weeks (Khosravi et al., 2014). These mice were recolonized via FMT, which was achieved by oral gavage of a faecal slurry. Recipient mice had the food removed from the cage for 2 h prior to FMT. The faecal slurry was obtained by pooling faecal pellets from 8-14 donor mice. The pellets were weighed and resuspended by vortexing for 1 min in 1 mL PBS per 300 mg of faeces. After pelleting larger particles by centrifugation at 500×g for 5 min, the supernatant was collected for FMT. Each recipient mouse received 150 μl of faecal slurry by oral gavage. The remaining slurry was stored at −80° C. for 16S rRNA sequencing. Following FMT, the cages of recipient mice were replenished with dirty bedding and fresh faecal pellets from donor mice once and twice a week, respectively. Faecal pellets for 16S rRNA sequencing were collected the day before FMT and at the end of the experiment and were stored at −80° C. for DNA extraction. For re-colonization of ABX treated mice, FMTs from 8 weeks old or 15-16 months old males were undergone. Fresh fecal pellets are collected under a sterile hood and directly thoroughly homogenized in 0.1% L-Cysteine hydrochloride monohydrate in 1×PBS in order to maintain anaerobic microbes. The homogenates were spun down for 1 min, 200 g at 4° C. and the turbid supernatant was used to orally and rectally gavage the recipient mice. The FMT was performed twice 72 h apart.
(§3) NNN-trimethyl-5-aminovalerate was dissolved in 0.9% NaCl and administered i.p. at a dose of 200 mg/kg in a volume of 10 ml/kg. As control the vehicle NaCl was injected.
(§4) Mice were tested 40 min after drug- or vehicle injection or 4 weeks after FMT. We first performed the training run for the Novel-object recognition test, followed by the T maze test and then 6 h after the training session mice were tested in the Novel object recognition test. Spatial working memory was tested using the continuous spontaneous alternation task in a T-maze as described previously (Spowart-Manning, L. et al). Briefly, animals were set into the base of a T-maze and allowed to explore a randomly assigned T-maze arm until it returned to the base arm. Subsequently, the blocked arm was opened, and the animal was allowed to explore the complete maze. Once one arm of the T-maze was entered, the other arm was blocked until the animal returned to the base arm. Then, the exit of the base arm was blocked for 5 s and the animal was allowed to explore the maze again. The experiment was stopped after 14 free choice arm entries. Arm entries were scored as alternations if an animal chose the opposing arm compared to the arm visited immediately prior to the scored instance. The Novel Object Recognition (NOR) task was applied to evaluate recognition memory as published previously (Antunes, M. & Biala, G. et al). During the habituation phase, each mouse was allowed to explore two similar objects within a total exploration time of 20 s. […]

C57BL/6J mice [2] = test: T-maze spontaneous alternation test (spatial working memory); details: old mice and old mice subjected to FMT from young donors; PLX5622 chow versus respective control mice; FIG. 15B
Procedure: as §1, §2, §3, §4

microglia = test: Microglia depletion verified by Iba-1 immunohistochemistry; details: 1200 mg/kg in AIN-76A chow ad libitum; cortex and hippocampus; FIG. 15E-F
Procedure: as §1
Mice were lethally anesthetized with ketamine (100 mg/kg bodyweight) and xylazine (10 mg/kg body weight) followed by perfusion with 1×PBS through the left heart chamber. For histology, the brains were kept overnight in 4% PFA. The brains were then dehydrated in 30% sucrose and embedded in Tissue-Tek O.C.T.™ compound (Sakura Finetek Germany GmbH). […] Fluorescence imaging was performed with BZ-9000 Biorevo microscope (Keyence). Iba-1+DAPI+ cells were quantified using ImageJ (v. 1.53c).

Q: How did the “NOR performance of mice lacking microglia” value (C57BL/6J mice [1]) turn out when `COc1ncc(F)cc1CNc1ccc(Cc2c[nH]c3ncc(C)cc23)c(F)n1` [PLX5622, reference compound] was run?
A: Its value is “unchanged”.

Q: And the “T maze performance of mice lacking microglia” value (C57BL/6J mice [2])?
A: The value was “unchanged”.

Q: And the “microglia in brain tissue (Iba-1 immunohistochemistry)” value (microglia)?
A: Its value is “almost complete absence”.
